According to US20230085307A1, “PYRIDAZINONE COMPOUND AND HERBICIDE” (NISSAN CHEMICAL CORPORATION, priority 2019, published 2023):

What was measured:
barnyard grass [1] = test: Test Example 3: herbicidal effect by foliage application, Wagner pot (Table 18, symbol H); assay type: in vivo, barnyard grass (Echinochloa crus-galli)
How it was run: (§1)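 Plants were sown in alluvial soil held under 0.1–0.5 cm standing water and grown 14 days in a greenhouse at 25–30 °C. An emulsifiable formulation, water-diluted to the set dose, was then sprayed onto the foliage, and effects were scored three weeks later using previously defined criteria.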

Chinese sprangletop = test: Test Example 3: herbicidal effect by foliage application, Wagner pot (Table 18, symbol D); assay type: in vivo, chinese sprangletop (Leptochloa chinensis)
How it was run: as §1

rice flat sedge = test: Test Example 3: herbicidal effect by foliage application, Wagner pot (Table 18, symbol E); assay type: in vivo, rice flat sedge (Cyperus iria)
How it was run: as §1

southern crabgrass [2] = test: Test Example 4: herbicidal effect by soil treatment (Table 19, symbol F); assay type: in vivo, southern crabgrass (Digitaria ciliaris); settings: amount of applied herbicide 320 g/ha
How it was run: (§2)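 Soil-surface application: an emulsion agent diluted with water to the predetermined dose is sprayed uniformly over seeds lying under roughly 1.5 cm of sterilized diluvial soil. Boxes stay in a greenhouse at 25° C. to 30° C. Three weeks later, each species is graded on previously defined criteria.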

green foxtail [3] = test: Test Example 4: herbicidal effect by soil treatment (Table 19, symbol G); assay type: in vivo, green foxtail (Setaria viridis); settings: amount of applied herbicide 320 g/ha
How it was run: as §2

barnyard grass [4] = test: Test Example 4: herbicidal effect by soil treatment (Table 19, symbol H); assay type: in vivo, barnyard grass (Echinochloa crus-galli); settings: amount of applied herbicide 320 g/ha
How it was run: as §2

wild oat [5] = test: Test Example 4: herbicidal effect by soil treatment (Table 19, symbol I); assay type: in vivo, wild oat (Avena fatua); settings: amount of applied herbicide 320 g/ha
How it was run: as §2

Italian ryegrass [6] = test: Test Example 4: herbicidal effect by soil treatment (Table 19, symbol K); assay type: in vivo, Italian ryegrass (Lolium multiflorum); settings: amount of applied herbicide 320 g/ha
How it was run: as §2

windgrass [7] = test: Test Example 4: herbicidal effect by soil treatment (Table 19, symbol L); assay type: in vivo, windgrass (Apera spica-venti); settings: amount of applied herbicide 320 g/ha
How it was run: as §2

velvetleaf [8] = test: Test Example 4: herbicidal effect by soil treatment (Table 19, symbol M); assay type: in vivo, velvetleaf (Abutilon theophrasti); settings: amount of applied herbicide 320 g/ha
How it was run: as §2

redroot pigweed [9] = test: Test Example 4: herbicidal effect by soil treatment (Table 19, symbol N); assay type: in vivo, redroot pigweed (Amaranthus retroflexus); settings: amount of applied herbicide 320 g/ha
How it was run: as §2

lambsquarters [10] = test: Test Example 4: herbicidal effect by soil treatment (Table 19, symbol O); assay type: in vivo, lambsquarters (Chenopodium album); settings: amount of applied herbicide 320 g/ha
How it was run: as §2

chickweed [11] = test: Test Example 4: herbicidal effect by soil treatment (Table 19, symbol P); assay type: in vivo, common chickweed (Stellaria media); settings: amount of applied herbicide 320 g/ha
How it was run: as §2

persian speedwell [12] = test: Test Example 4: herbicidal effect by soil treatment (Table 19, symbol R); assay type: in vivo, Persian speedwell (Veronica persica); settings: amount of applied herbicide 320 g/ha
How it was run: as §2

southern crabgrass [13] = test: Test Example 5: herbicidal effect by foliage application, plastic box (Table 20, symbol F); assay type: in vivo, southern crabgrass (Digitaria ciliaris); settings: 320 g/ha, evaluated three weeks after application
How it was run: (§3)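 Sow seeds spot-wise in sterilized diluvial soil; cover with ~1.5 cm soil. Grow 14 days in greenhouse, 25° C. to 30° C. Spray foliage with emulsion diluted to predetermined amount. Rate effect after 3 weeks.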

green foxtail [14] = test: Test Example 5: herbicidal effect by foliage application, plastic box (Table 20, symbol G); assay type: in vivo, green foxtail (Setaria viridis); settings: 320 g/ha, evaluated three weeks after application
How it was run: as §3

barnyard grass [15] = test: Test Example 5: herbicidal effect by foliage application, plastic box (Table 20, symbol H); assay type: in vivo, barnyard grass (Echinochloa crus-galli); settings: 320 g/ha, evaluated three weeks after application
How it was run: as §3

wild oat [16] = test: Test Example 5: herbicidal effect by foliage application, plastic box (Table 20, symbol I); assay type: in vivo, wild oat (Avena fatua); settings: 320 g/ha, evaluated three weeks after application
How it was run: as §3

blackgrass = test: Test Example 5: herbicidal effect by foliage application, plastic box (Table 20, symbol J); assay type: in vivo, blackgrass (Alopecurus myosuroides); settings: 320 g/ha, evaluated three weeks after application
How it was run: as §3

Italian ryegrass [17] = test: Test Example 5: herbicidal effect by foliage application, plastic box (Table 20, symbol K); assay type: in vivo, Italian ryegrass (Lolium multiflorum); settings: 320 g/ha, evaluated three weeks after application
How it was run: as §3

windgrass [18] = test: Test Example 5: herbicidal effect by foliage application, plastic box (Table 20, symbol L); assay type: in vivo, windgrass (Apera spica-venti); settings: 320 g/ha, evaluated three weeks after application
How it was run: as §3

velvetleaf [19] = test: Test Example 5: herbicidal effect by foliage application, plastic box (Table 20, symbol M); assay type: in vivo, velvetleaf (Abutilon theophrasti); settings: 320 g/ha, evaluated three weeks after application
How it was run: as §3

redroot pigweed [20] = test: Test Example 5: herbicidal effect by foliage application, plastic box (Table 20, symbol N); assay type: in vivo, redroot pigweed (Amaranthus retroflexus); settings: 320 g/ha, evaluated three weeks after application
How it was run: as §3

lambsquarters [21] = test: Test Example 5: herbicidal effect by foliage application, plastic box (Table 20, symbol O); assay type: in vivo, lambsquarters (Chenopodium album); settings: 320 g/ha, evaluated three weeks after application
How it was run: as §3

chickweed [22] = test: Test Example 5: herbicidal effect by foliage application, plastic box (Table 20, symbol P); assay type: in vivo, common chickweed (Stellaria media); settings: 320 g/ha, evaluated three weeks after application
How it was run: as §3

persian speedwell [23] = test: Test Example 5: herbicidal effect by foliage application, plastic box (Table 20, symbol R); assay type: in vivo, Persian speedwell (Veronica persica); settings: 320 g/ha, evaluated three weeks after application
How it was run: as §3

[24] = amount of applied herbicide 320 g/ha
[25] = foliage application after 14-day growth

Cc1nn(C)c(=O)c(-c2c(-c3ccccc3C(F)(F)F)sc3ccc(F)cc23)c1O [2-229]
herbicidal effect on H: barnyard grass (barnyard grass [1]; [24]): 4 (Herbicidal rate of 70% or more and less than 90%) | herbicidal effect on D: Chinese sprangletop (Chinese sprangletop; [24]): 3 (Herbicidal rate of 40% or more and less than 70%) | herbicidal effect on E: rice flat sedge (rice flat sedge; [24]): 4 (Herbicidal rate of 70% or more and less than 90%) | herbicidal effect on F: southern crabgrass (southern crabgrass [2]): 3 (Herbicidal rate of 40% or more and less than 70%) | herbicidal effect on G: green foxtail (green foxtail [3]): 3 (Herbicidal rate of 40% or more and less than 70%) | herbicidal effect on H: barnyard grass (barnyard grass [4]): 1 (Herbicidal rate of 5% or more and less than 20%) | herbicidal effect on I: wild oat (wild oat [5]): 0 (Herbicidal rate of 5% or less (almost no effect)) | herbicidal effect on K: Italian ryegrass (Italian ryegrass [6]): 2 (Herbicidal rate of 20% or more and less than 40%) | herbicidal effect on L: windgrass (windgrass [7]): 0 (Herbicidal rate of 5% or less (almost no effect)) | herbicidal effect on M: velvetleaf (velvetleaf [8]): 1 (Herbicidal rate of 5% or more and less than 20%) | herbicidal effect on N: redroot pigweed (redroot pigweed [9]): 2 (Herbicidal rate of 20% or more and less than 40%) | herbicidal effect on O: lambsquarters (lambsquarters [10]): 3 (Herbicidal rate of 40% or more and less than 70%) | herbicidal effect on P: chickweed (chickweed [11]): 1 (Herbicidal rate of 5% or more and less than 20%) | herbicidal effect on R: persian speedwell (persian speedwell [12]): 0 (Herbicidal rate of 5% or less (almost no effect)) | herbicidal effect on F: southern crabgrass (criteria 0-5) (southern crabgrass [13]; foliage application): 3 (Herbicidal rate of 40% or more and less than 70%) | herbicidal effect on G: green foxtail (criteria 0-5) (green foxtail [14]; foliage application): 5 (Herbicidal rate of 90% or more (almost completely withered)) | herbicidal effect on H: barnyard grass (criteria 0-5) (barnyard grass [15]; foliage application): 3 (Herbicidal rate of 40% or more and less than 70%) | herbicidal effect on I: wild oat (criteria 0-5) (wild oat [16]; foliage application): 1 (Herbicidal rate of 5% or more and less than 20%) | herbicidal effect on J: blackgrass (criteria 0-5) (blackgrass; foliage application): 3 (Herbicidal rate of 40% or more and less than 70%) | herbicidal effect on K: Italian ryegrass (criteria 0-5) (Italian ryegrass [17]; foliage application): 4 (Herbicidal rate of 70% or more and less than 90%) | herbicidal effect on L: windgrass (criteria 0-5) (windgrass [18]; foliage application): 4 (Herbicidal rate of 70% or more and less than 90%) | herbicidal effect on M: velvetleaf (criteria 0-5) (velvetleaf [19]; foliage application): 4 (Herbicidal rate of 70% or more and less than 90%) | herbicidal effect on N: redroot pigweed (criteria 0-5) (redroot pigweed [20]; foliage application): 4 (Herbicidal rate of 70% or more and less than 90%) | herbicidal effect on O: lambsquarters (criteria 0-5) (lambsquarters [21]; foliage application): 4 (Herbicidal rate of 70% or more and less than 90%) | herbicidal effect on P: chickweed (criteria 0-5) (chickweed [22]; foliage application): 5 (Herbicidal rate of 90% or more (almost completely withered)) | herbicidal effect on R: persian speedwell (criteria 0-5) (persian speedwell [23]; foliage application): 5 (Herbicidal rate of 90% or more (almost completely withered))

COc1ccccc1-c1sc2cc(OS(=O)(=O)C(F)(F)F)ccc2c1-c1c(O)c(C)nn(C)c1=O [3-161]
herbicidal effect on barnyard grass (H) (barnyard grass [1]; 320 g/ha): 5 (Herbicidal rate of 90% or more (almost completely withered)) | herbicidal effect on Chinese sprangletop (D) (Chinese sprangletop; 320 g/ha): 3 (Herbicidal rate of 40% or more and less than 70%) | herbicidal effect on rice flat sedge (E) (rice flat sedge; 320 g/ha): 3 (Herbicidal rate of 40% or more and less than 70%) | Herbicidal effect by soil treatment, F: southern crabgrass (southern crabgrass [2]): 0 (Herbicidal rate of 5% or less (almost no effect)) | Herbicidal effect by soil treatment, G: green foxtail (green foxtail [3]): 0 (Herbicidal rate of 5% or less (almost no effect)) | Herbicidal effect by soil treatment, H: barnyard grass (barnyard grass [4]): 0 (Herbicidal rate of 5% or less (almost no effect)) | Herbicidal effect by soil treatment, I: wild oat (wild oat [5]): 0 (Herbicidal rate of 5% or less (almost no effect)) | Herbicidal effect by soil treatment, K: Italian ryegrass (Italian ryegrass [6]): 0 (Herbicidal rate of 5% or less (almost no effect)) | Herbicidal effect by soil treatment, L: windgrass (windgrass [7]): 0 (Herbicidal rate of 5% or less (almost no effect)) | Herbicidal effect by soil treatment, M: velvetleaf (velvetleaf [8]): 0 (Herbicidal rate of 5% or less (almost no effect)) | Herbicidal effect by soil treatment, N: redroot pigweed (redroot pigweed [9]): 4 (Herbicidal rate of 70% or more and less than 90%) | Herbicidal effect by soil treatment, O: lambsquarters (lambsquarters [10]): 0 (Herbicidal rate of 5% or less (almost no effect)) | Herbicidal effect by soil treatment, P: chickweed (chickweed [11]): 0 (Herbicidal rate of 5% or less (almost no effect)) | Herbicidal effect by soil treatment, R: persian speedwell (persian speedwell [12]): 0 (Herbicidal rate of 5% or less (almost no effect)) | herbicidal effect on F: southern crabgrass (evaluation grade 0-5) (southern crabgrass [13]; [25]): 0 (Herbicidal rate of 5% or less (almost no effect)) | herbicidal effect on G: green foxtail (evaluation grade 0-5) (green foxtail [14]; [25]): 3 (Herbicidal rate of 40% or more and less than 70%) | herbicidal effect on H: barnyard grass (evaluation grade 0-5) (barnyard grass [15]; [25]): 3 (Herbicidal rate of 40% or more and less than 70%) | herbicidal effect on I: wild oat (evaluation grade 0-5) (wild oat [16]; [25]): 0 (Herbicidal rate of 5% or less (almost no effect)) | herbicidal effect on J: blackgrass (evaluation grade 0-5) (blackgrass; [25]): 4 (Herbicidal rate of 70% or more and less than 90%) | herbicidal effect on K: Italian ryegrass (evaluation grade 0-5) (Italian ryegrass [17]; [25]): 4 (Herbicidal rate of 70% or more and less than 90%) | herbicidal effect on L: windgrass (evaluation grade 0-5) (windgrass [18]; [25]): 4 (Herbicidal rate of 70% or more and less than 90%) | herbicidal effect on M: velvetleaf (evaluation grade 0-5) (velvetleaf [19]; [25]): 2 (Herbicidal rate of 20% or more and less than 40%) | herbicidal effect on N: redroot pigweed (evaluation grade 0-5) (redroot pigweed [20]; [25]): 4 (Herbicidal rate of 70% or more and less than 90%) | herbicidal effect on O: lambsquarters (evaluation grade 0-5) (lambsquarters [21]; [25]): 3 (Herbicidal rate of 40% or more and less than 70%) | herbicidal effect on P: chickweed (evaluation grade 0-5) (chickweed [22]; [25]): 5 (Herbicidal rate of 90% or more (almost completely withered)) | herbicidal effect on R: persian speedwell (evaluation grade 0-5) (persian speedwell [23]; [25]): 5 (Herbicidal rate of 90% or more (almost completely withered))
